Experimental data: ChEMBL document CHEMBL3714709, “T1R hetero-oligomeric taste receptors, cell lines that express said receptors, and taste compounds” (2008)
Active and inactive are the calls of the source. The rule behind the calls is not given here.

What was measured:
[1] = target: T1R1/T1R3 (Homo sapiens) (UniProt Q7RTX0+Q7RTX1); assay: Activation of human T1R1/T1R3; type: protein-complex assay
[2] = target: Muscarinic acetylcholine receptor (Homo sapiens) (UniProt P20309+P08173+P11229+P08172+P08912); assay: Inhibition of mAChR (unknown origin) expressed in HEK293 cells; type: cell-based
[3] = target: T1, Taste receptor type 2 member 105 (Mus musculus) (UniProt Q9JKT4); assay: Inhibition of mouse T2R5 expressed in HEK293 cells; type: cell-based
T1 sequence (whole entry): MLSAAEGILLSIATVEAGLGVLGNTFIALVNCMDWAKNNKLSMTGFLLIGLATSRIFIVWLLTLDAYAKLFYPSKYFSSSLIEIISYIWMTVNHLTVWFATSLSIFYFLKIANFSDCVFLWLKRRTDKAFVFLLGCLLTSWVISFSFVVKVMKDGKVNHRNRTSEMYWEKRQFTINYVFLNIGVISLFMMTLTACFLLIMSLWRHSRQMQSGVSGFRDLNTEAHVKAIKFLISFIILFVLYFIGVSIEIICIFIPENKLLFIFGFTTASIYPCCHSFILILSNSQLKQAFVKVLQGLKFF

| Activity [1] | inhibition [2] | inhibition [3] | SMILES |
| --- | --- | --- | --- |
| inactive | – | – | O=C1NS(=O)(=O)c2ccccc21 |
| inactive | – | – | N[C@H](Cc1c[nH]c2ccccc12)C(=O)O |
| inactive | – | – | OC[C@H]1O[C@@](CO)(O[C@H]2O[C@H](CO)[C@@H](O)[C@H](O)[C@H]2O)[C@@H](O)[C@@H]1O |
| – | inactive | inactive | COc1ccc(OC(C)C(=O)O)cc1 (stereo not given) |
